According to ChEMBL document CHEMBL3507680, “University of Dundee, Gates Library screen for HepG2 cell viability”:

Assay: Human HepG2 cell viability assay in 384 well format
Assay type: toxicity, cell-based
Set-up: dose 125 nL, time 70.5 hour; concentration not given beside the values
Conditions: HepG2 cells, read-out: Inhibition

Row | Structure (SMILES) | cytotoxicity at 70.5 h
1 | O=C(c1ccc[nH]1)N1Cc2nccn2CC(Cn2ncccc2=O)C1 (configuration not stated) | -6.79%
2 | CC(=O)N1CCC2(CC1)CC(NC(=O)N(C)C)c1cc(C)ccc12 (configuration not stated) | -5.6%
3 | C1CC(CN2CC[C@@H]3O[C@@H](c4nnc(C5CC5)o4)C[C@H]3C2)CCO1 | -9.09%
4 | O=C(NCC1CC1)c1cc2c(s1)CCN2C(=O)c1cccnc1 | -8.04%
5 | CO[C@@H]1CC[C@H]2[C@H]1OCCN2S(=O)(=O)C1CC1 | -9.16%
6 | Cn1cc(C2CC(=O)NC23CCN(C(=O)NC2CC2)CC3)cn1 (configuration not stated) | -6.56%
7 | CN(C)C(=O)N1CCC2(C1)CN(c1cccnc1)C(=O)CN2C (configuration not stated) | -7.38%
8 | O=C(NCC1CC1)[C@@H]1C[C@@H]2CCN(Cc3ccoc3)C[C@@H]2O1 | 2.93%
9 | O=C(NCC1CCCO1)c1nc2c(s1)CCCN2c1ncccn1 (configuration not stated) | 24.3%
10 | O=C(c1cnccn1)N1CCN(Cc2cccnc2)c2ncccc2C1 | -8.24%
11 | CN(Cc1cccnc1)[C@@H]1CN(Cc2ccccn2)[C@@H]2CCCO[C@H]12 | -2.2%
12 | Cc1cccc(CN2C(=O)CCC23CCN(Cc2nccn2C)CC3)n1 | -4.21%
13 | Cc1ccc(CN2CC[C@H]3OCC[C@@]3(C(=O)N3CCCO3)C2)s1 | -5.95%
14 | CC1c2ncc(Cn3cncn3)n2CCN1C(=O)N(C)C (configuration not stated) | -7.73%
15 | CC(C)Nc1nc(N2CCCC2)nc2c1CN(c1ncc(F)cn1)CC2 | -7.8%
16 | O=C1CC2(CCN(c3nncs3)C2)CN1c1ccccc1 (configuration not stated) | -1.13%
17 | Cn1cc(CN2CC[C@@H]3O[C@H](C(=O)N4CCOCC4)C[C@@H]32)cn1 | -5.63%
18 | CC(C)CC(=O)N1CC[C@@H]2[C@H](CC1)N(S(C)(=O)=O)CCS2(=O)=O | -4.28%
19 | O=C(N[C@@H]1CN(Cc2ccc3c(c2)OCO3)[C@@H]2CCCO[C@@H]21)C1CC1 | 8.84%
20 | O=C(c1cnccn1)N1CCN(Cc2ccncc2)c2ncccc2C1 | -5.23%
21 | Cc1oncc1C(=O)N1CCC2(C1)CN(c1cccnc1)C(=O)CN2C (configuration not stated) | -0.201%
22 | O=C(N[C@@H]1CN(Cc2ccsc2)[C@@H]2CCCO[C@@H]21)C1CC1 | 9.03%
23 | COCCNC(=O)c1cc2c(s1)CCN2C(=O)c1ccccc1 | 6.46%
24 | O=C(NCc1ccco1)[C@H]1C[C@H]2OCC[C@H]2N(C(=O)c2ccco2)C1 | -8.55%
25 | COC(=O)CCC(=O)N1CCC2(CN(Cc3cccc(F)c3)C2)C1 | 0.281%
26 | CC(C)Nc1nc(N2CCCC2)nc2c1CN(C(C)C)CC2 | 0.846%

Row | Structure (SMILES) | cytotoxicity at 70.5 h
27 | CC(C)NC(=O)C1CN(C(N)=O)Cc2ccnn2C1 (configuration not stated) | -17.9%
28 | CN(Cc1ccccn1)C(=O)[C@]12COC[C@H]1CN(Cc1cnn(C)c1)C2 | -15.4%
29 | Cn1cc(CN2CCCn3cnc(COCC4CC4)c3C2)cn1 | -12.6%
30 | Cc1cnc(N2C[C@H]3C[C@H](C(=O)N(C)C)[C@@H](C2)O3)nc1 | -13.5%
31 | CCOCC1CN(S(C)(=O)=O)Cc2cnn(C)c21 (configuration not stated) | -11.1%
32 | Cc1ccoc1C(=O)N1CCO[C@H]2[C@H](OCC3CCOCC3)CC[C@@H]21 | -15%
33 | Fc1cnc(N2CCO[C@H]3CN(CC4CCC4)C[C@H]32)nc1 | -0.999%
34 | CC(=O)N1CCn2c(COCc3csc(C)n3)cnc2C1C (configuration not stated) | -20.1%
35 | Cc1noc(C)c1CN1CCOC2(CCCN(c3nccs3)C2)C1 (configuration not stated) | 29.8%
36 | Cc1nc(N)cc(C2CCN2CCC(N)=O)n1 (configuration not stated) | -3.73%
37 | CCCn1nccc1-c1nccnc1CC1CCN(C(C)=O)CC1 | -2.55%
38 | CC(=O)N1CCC(Cc2nccnc2-c2ccnn2C)CC1 | -2.74%
39 | CC(C)=CCCC1(C)C=Cc2c(cc(C)n(CCC(=O)O)c2=O)O1 (configuration not stated) | 4.03%
40 | CC(C)N1CCc2c(CN(C)Cc3ccco3)cncc2C1 | 5.22%
41 | O=c1cccnn1CC1CN(CC2CCCC2)Cc2nccn2C1 (configuration not stated) | -5.89%
42 | Cc1ccc2c(c1)C(NC(=O)N(C)C)CC21CCN(C(C)C)CC1 (configuration not stated) | -5.2%
43 | c1cncc(N2CCC3(CCCN(c4ccncc4)C3)CC2)c1 | -6.14%
44 | COCCNC(=O)[C@H]1C[C@@H]2CCN(c3ccncn3)C[C@H]2O1 | 1.69%
45 | Cc1ccc(CN2CC[C@H]3OCC[C@@]3(C(=O)N3CCCO3)C2)o1 | 2.99%
46 | O=C(c1cnccn1)N1CCCC2(CCN(Cc3ccsc3)C2)C1 (configuration not stated) | -5.33%
47 | O=C(c1cnccn1)N1CC2(CCN(Cc3ccsc3)C2)C1 | -4.05%
48 | Cc1ccsc1CN1CC[C@H]2OCC[C@@]2(C(=O)N2CCCO2)C1 | 22.9%
49 | O=C(N1CCCO1)[C@@]12CCO[C@@H]1CCN(Cc1cccs1)C2 | 34.4%
50 | CCOCC1CN(C(=O)c2cnoc2C)Cc2cnn(C)c21 (configuration not stated) | -12.5%
51 | CC(=O)NCC(=O)N1CCOC2(CCCN(c3cccnc3)C2)C1 (configuration not stated) | 14.8%
52 | Cc1nc(N(C)C)nc2c1COCC21CCN(CC2CC2)C1 (configuration not stated) | 5.56%

Row | Structure (SMILES) | cytotoxicity at 70.5 h
53 | O=C([C@@H]1C[C@H]2[C@H](CCN2Cc2nccs2)O1)N1CCOCC1 | -8.03%
54 | Cc1ccc(CN2CCC3(CC2)C(=O)N(C)c2ccccc23)s1 | 0.079%
55 | CC1=N[C@@]2(CC[C@@H]3CN(Cc4ccccc4F)C[C@@H]32)C(=O)N1CC1CC1 | -0.339%
56 | CCC1=N[C@@]2(CC[C@@H]3CN(Cc4ccccc4F)C[C@@H]32)C(=O)N1CC | -6.42%
57 | O=C(NCc1ccco1)[C@@H]1CCO[C@@H]2CCN(c3ccncn3)C[C@H]21 | -2.41%
58 | O=C(NCC1CCOCC1)[C@@H]1C[C@@H]2CCN(Cc3ccco3)C[C@H]2O1 | -5.42%
59 | O=C(N1CCCO1)[C@@]12CCO[C@@H]1CCN(Cc1ccccc1)C2 | -5%
60 | CN(C)C(=O)N[C@@H]1CN(Cc2ccc3c(c2)OCO3)[C@@H]2CCCO[C@@H]21 | 3.25%
61 | CCS(=O)(=O)N1CCC[C@]2(C(=O)N(C)C)CN(c3ncccn3)C[C@@H]2C1 | 11.9%
62 | O=C(c1cnccn1)N1CCOC2(CCN(Cc3ccsc3)CC2)C1 | 4.24%
63 | Cn1cc(C2CC(=O)NC23CCN(CC2CC2)CC3)cn1 (configuration not stated) | 9.8%
64 | Cc1ccoc1C(=O)N1CCO[C@H]2[C@H](OCCN(C)C)CC[C@@H]21 | -12.4%
65 | Cc1ccc(CN2CCc3ncnc(-c4ccc(F)cc4)c3CC2)o1 | -14.6%
66 | O=C(c1ccnnc1)N1CCN2C[C@H](Oc3cccc(F)c3)C[C@H]2C1 | -5.78%
67 | c1nc(COCC2CC2)c2n1CCCN(CC1CC1)C2 | -18.3%
68 | CC[C@@H]1N(CC2CC2)CCC[C@]12CCC(=O)N2CCOC | -9.87%
69 | Cc1nc(COCc2cnc3n2CCN(C2CCC2)C3C)cs1 (configuration not stated) | -12.4%
70 | Cc1nc(COCc2cnc3n2CCN(CC2CCC2)C3C)cs1 (configuration not stated) | -5.9%
71 | Cc1ccc(CN2C[C@@H]3COC[C@@H](NS(C)(=O)=O)[C@@H]3C2)o1 | -18.3%
72 | Cc1cc(C(=O)N2CCC3(C2)CN(c2cccnc2)C(=O)CN3C)[nH]n1 (configuration not stated) | -10.2%
73 | Cc1cccc(CN2CCc3cc(C(=O)O)c(N(C)C)nc3CC2)n1 | -5.66%
74 | CC(C)Nc1nc2c(cc1C(=O)O)CCN(Cc1ccsc1)CC2 | -6.73%
75 | O=C(NCc1cccnc1)[C@H]1C[C@@H]2CCN(c3ccncn3)C[C@H]2O1 | -5.01%
76 | CCCN1CC[C@@H]2OC[C@H](C(=O)Nc3cccnc3)C[C@@H]2C1 | 2.64%
77 | CN(Cc1cccnc1)[C@@H]1CN(C(=O)CC2CC2)[C@@H]2CCCO[C@H]12 | 0.0586%
78 | COCCN1CCC2(CCC(=O)N2Cc2csc(C)n2)CC1 | -7.09%

Row | Structure (SMILES) | cytotoxicity at 70.5 h
79 | O=C(N1CCCC1)N1CCN(Cc2cccnc2)c2ncccc2C1 | -10.8%
80 | O=C(CC1CC1)N1CCN(Cc2cccnc2)c2ncccc2C1 | -9.33%
81 | Cc1nc(CN2C(=O)CCC23CCN(Cc2ccccn2)CC3)cs1 | -6.85%
82 | c1ccc(CN2CC[C@H]3CO[C@H](CNc4ncccn4)[C@H]3C2)cc1 | -5.27%
83 | Cn1ccnc1CN1CCC2(CCC(=O)N2CCN2CCCC2)CC1 | -8.64%
84 | CN(C)CCOCc1nnc2n1CCN(Cc1ccco1)CC2 | -4.62%
85 | CC(C)COCC1CN(Cc2ccc3c(c2)OCO3)Cc2ncn(C)c21 (configuration not stated) | 45.7%
86 | Cc1ccc(CN2CCC3(CC2)CC(c2cccnc2)CO3)s1 (configuration not stated) | 2.33%
87 | CCCC(=O)N1CC[C@@H]2[C@H](CC1)N(Cc1cccnc1)CCS2(=O)=O | 4.18%
88 | O=C(Nc1cccnc1)[C@H]1C[C@@H]2CCN(c3nncs3)C[C@H]2O1 | -1.35%
89 | O=C(Nc1cccnc1)[C@H]1CO[C@H]2CCN(c3ncc(F)cn3)C[C@H]2C1 | 4.85%
90 | CC(=O)N1CCOCC2(CN(Cc3ccccn3)CCO2)C1 (configuration not stated) | -9.92%
91 | CN(Cc1cncnc1)[C@H]1CN(CC2CC2)[C@@H]2CCCO[C@@H]21 | -5.03%
92 | CC1c2ncc(CNC(=O)C3CC3)n2CCN1Cc1cnn(C)c1 (configuration not stated) | -12%
93 | c1ccc(OC[C@]23COC[C@H]2CN(c2ncccn2)C3)nc1 | -9.18%
94 | c1cncc(OCc2nnn3c2CN(Cc2ccsc2)CCC3)c1 | -11.8%
95 | O=C(NCc1ccccn1)[C@]12COC[C@H]1CN(C1CCC1)C2 | -10.3%
96 | O[C@H]1CCN(Cc2ccoc2)[C@H]1Cc1cccnc1 | 30.5%
97 | c1cnc(NC[C@H]2OC[C@@H]3CCN(Cc4cccnc4)C[C@@H]32)nc1 | -12.6%
98 | c1cnc(NC[C@H]2OC[C@@H]3CCN(Cc4nccs4)C[C@@H]32)nc1 | 21.4%
99 | c1ccc(CN2CC[C@@H]3[C@@H](CO[C@@H]3CNc3ncccn3)C2)nc1 | -7.29%
100 | CC(C)N(C)Cc1nnc2n1CCN(Cc1ccncc1)CC2 | -3.24%
101 | Cn1cnc2c1C(COCc1ccccc1)N(Cc1ccncc1)CC2 (configuration not stated) | -3.01%
102 | CN1CCN(C[C@@H]2OC[C@H]3CN(Cc4cccc(F)c4)CC[C@H]32)CC1 | 2.68%
